Literature values, collected in patent US20090246276A1, “Pharmaceutical Compositions” (priority 2008, published 2009).
Where two headings read alike, the source gives them in different places.

Tested on: patients diagnosed with MDD
Settings: citalopram non-responders, cited from earlier work

CC(NC(C)(C)C)C(=O)c1cccc(Cl)c1 (centres unmarked) [Bupropion, bupropion]
remission rate (bupropion added on to the existing citalopram treatment): 30%
remission rate (switched to bupropion): 20%
